Patent US20100093722A1, “HETEROARYL AND PHENYL SUBSTITUTED THIENO[2,3-d]PYRIMIDINES AND THEIR USE AS ADENOSINE A2a RECEPTOR ANTAGONISTS” (priority 2008, published 2010)

How the values were obtained:
[1] = target: T1, human adenosine A1 receptor (Homo sapiens, UniProt P30542); experiment: Adenosine A1 Receptor Functional Assay (A1GAL2); format: cell-based; settings: CHO-K1 cells overexpressing human A1, cAMP inducible beta-galactosidase reporter, 4 nM r-PIA/1 uM Forskolin challenge
T1 construct: expressed in transfected cells; host or cells: CHO-K1
T1 sequence (P30542 1-326): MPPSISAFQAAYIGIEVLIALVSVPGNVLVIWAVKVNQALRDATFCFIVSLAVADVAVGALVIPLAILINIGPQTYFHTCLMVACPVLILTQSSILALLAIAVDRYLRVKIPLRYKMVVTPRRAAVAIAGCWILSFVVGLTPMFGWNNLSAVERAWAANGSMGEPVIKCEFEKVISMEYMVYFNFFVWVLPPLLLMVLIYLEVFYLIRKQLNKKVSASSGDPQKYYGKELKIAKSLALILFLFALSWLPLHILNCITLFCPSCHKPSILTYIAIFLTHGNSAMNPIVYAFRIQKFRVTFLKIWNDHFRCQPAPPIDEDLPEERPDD
Experimental: Adenosine A1 Receptor Functional Assay (A1GAL2)
To initiate the functional assay, cryopreserved CHO-K1 cells overexpressing the human adenosine A1 receptor and containing a cAMP inducible beta-galactosidase reporter gene were thawed, centrifuged, DMSO containing media removed, and then seeded with fresh culture media into clear 384-well tissue culture treated plates (BD #353961) at a concentration of 10K cells/well. Prior to assay, these plates were cultured for two days at 37+ C., 5% CO2, 90% Rh. On the day of the functional assay, culture media was removed and replaced with 45 uL assay medium (Hams/F-12 Modified (Mediatech #10-080CV) supplemented w/0.1% BSA). Test compounds were diluted and 11 point curves created at a 1000× concentration in 100% DMSO. Immediately after addition of assay media to the cell plates, 50 nL of the appropriate test compound antagonist or agonist control curves were added to cell plates using a Cartesian Hummingbird. Compound curves were allowed to incubate at room temperature on cell plates for approximately 15 minutes before addition of a 4 nM r-PIA (Sigma P4532)/1 uM Forskolin (Sigma F3917) agonist challenge (5 uL volume). A control curve of r-PIA in 1 uM Forskolin, a DMSO/Media control, and a single dose of Forskolin were also included on each plate. After additions, cell plates were allowed to incubate at 37° C., 5% CO2, 90% Rh for 5.5-6 hours. After incubation, media was removed, and cell plates were washed 1× 50 uL with DPBS w/o Ca & Mg (Mediatech 21-031-CV). Into dry wells, 20 uL of 1× Reporter Lysis Buffer (Promega E3971 (diluted in dH2O from 5× stock)) was added to each well and plates frozen at −20° C. overnight. For β-galactosidase enzyme calorimetric assay, plates were thawed out at room temperature and 20 μL 2× assay buffer (Promega) was added to each well. Color was allowed to develop at 37° C., 5% CO2, 90% Rh for 1-1.5 h or until reasonable signal appeared. The calorimetric reaction was stopped with the addition of 60 μL/well 1M sodium carbonate. Plates were counted at 405 nm on a SpectraMax Microplate Reader (Molecular Devices). Data was analyzed in Microsoft Excel and IC/EC50 curves were fit using a standardized macro.

[2] = target: T2, human A2a adenosine receptor (Homo sapiens, UniProt P29274); experiment: Ligand Binding Assay for Adenosine A2a Receptor (A2A-B); settings: plasma membrane of HEK293 cells containing human A2a receptor, radioligand [3H]CGS21680
T2 construct: purchased PerkinElmer RB-HA2a; host or cells: HEK293 plasma membrane
T2 sequence (P29274 whole entry): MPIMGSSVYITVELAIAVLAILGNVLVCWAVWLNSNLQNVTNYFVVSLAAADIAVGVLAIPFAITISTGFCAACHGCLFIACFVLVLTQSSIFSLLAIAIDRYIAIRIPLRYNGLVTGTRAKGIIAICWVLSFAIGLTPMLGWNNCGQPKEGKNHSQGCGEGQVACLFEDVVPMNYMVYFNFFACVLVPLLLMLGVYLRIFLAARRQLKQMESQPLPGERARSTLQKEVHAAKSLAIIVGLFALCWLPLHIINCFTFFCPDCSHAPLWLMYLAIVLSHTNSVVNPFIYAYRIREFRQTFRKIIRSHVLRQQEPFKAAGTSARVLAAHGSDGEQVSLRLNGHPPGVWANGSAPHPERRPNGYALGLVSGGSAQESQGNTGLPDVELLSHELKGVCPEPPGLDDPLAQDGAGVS
Experimental: Ligand Binding Assay for Adenosine A2a Receptor
Ligand binding assay of adenosine A2a receptor was performed using plasma membrane of HEK293 cells containing human A2a adenosine receptor (PerkinElmer, RB-HA2a) and radioligand [^3H]CGS21680 (PerkinElmer, NET1021). Assay was set up in 96-well polypropylene plate in total volume of 200 μL by sequentially adding 20 μL 1:20 diluted membrane, 130 μL assay buffer (50 mM Tris.HCl, pH 7.4 10 mM MgCl2, 1 mM EDTA) containing [^3H] CGS21680, 50 μL diluted compound (4×) or vehicle control in assay buffer. Nonspecific binding was determined by […] NECA. Reaction was carried out at room temperature for 2 hours before filtering through 96-well GF/C filter plate pre-soaked in 50 mM Tris.HCl, pH 7.4 containing 0.3% polyethylenimine. Plates were then washed 5 times with cold 50 mM Tris.HCl, pH 7.4, dried and sealed at the bottom. Microscintillation fluid 30 μL was added to each well and the top sealed. Plates were counted on Packard Topcount for [^3H]. Data was analyzed in Microsoft Excel and GraphPad Prism programs. (Varani, K.; Gessi, S.; Dalpiaz, A.; Borea, P. A. British Journal of Pharmacology, 1996, 117, 1693)

[3] = target: T3, human adenosine A2a receptor (Homo sapiens, UniProt P29274); experiment: Adenosine A2a Receptor Functional Assay (A2AGAL2); format: cell-based; settings: CHO-K1 cells overexpressing human A2a, cAMP inducible beta-galactosidase reporter, 15 nM NECA agonist challenge
T3 construct: expressed in transfected cells; host or cells: CHO-K1
T3 sequence (P29274 whole entry): as above
Experimental: Adenosine A2a Receptor Functional Assay (A2AGAL2)
To initiate the functional assay, cryopreserved CHO-K1 cells overexpressing the human adenosine A2a receptor and containing a cAMP inducible beta-galactosidase reporter gene were thawed, centrifuged, DMSO containing media removed, and then seeded with fresh culture media into clear 384-well tissue culture treated plates (BD #353961) at a concentration of 10K cells/well. Prior to assay, these plates were cultured for two days at 37° C., 5% CO2, 90% Rh. On the day of the functional assay, culture media was removed and replaced with 45 uL assay medium (Hams/F-12 Modified (Mediatech #10-080CV) supplemented w/0.1% BSA). Test compounds were diluted and 11 point curves created at a 1000× concentration in 100% DMSO. Immediately after addition of assay media to the cell plates, 50 nL of the appropriate test compound antagonist or agonist control curves were added to cell plates using a Cartesian Hummingbird. Compound curves were allowed to incubate at room temperature on cell plates for approximately 15 minutes before addition of a 15 nM NECA (Sigma E2387) agonist challenge (5 uL volume). A control curve of NECA, a DMSO/Media control, and a single dose of Forskolin (Sigma F3917) were also included on each plate. After additions, cell plates were allowed to incubate at 37° C., 5% CO2, 90% Rh for 5.5-6 hours. After incubation, media was removed, and cell plates were washed 1× 50 uL with DPBS w/o Ca & Mg (Mediatech 21-031-CV). Into dry wells, 20 uL of 1× Reporter Lysis Buffer (Promega E3971 (diluted in dH2O from 5× stock)) was added to each well and plates frozen at −20° C. overnight. For β-galactosidase enzyme calorimetric assay, plates were thawed out at room temperature and 20 μL 2× assay buffer (Promega) was added to each well. Color was allowed to develop at 37° C., 5% CO2, 90% Rh for 1-1.5 h or until reasonable signal appeared. The calorimetric reaction was stopped with the addition of 60 μL/well 1M sodium carbonate. Plates were counted at 405 nm on a SpectraMax Microplate Reader (Molecular Devices). Data was analyzed in Microsoft Excel and IC/EC50 curves were fit using a standardized macro.

SMILES	Ki [1]	Ki [2]	Ki [3]
COc1ncccc1C(O)c1cc2c(N)nc(-c3cccc(C#N)c3)nc2s1 (stereo not shown) [Example 9, 3-{4-Amino-6-[hydroxy-(2-methoxy-pyridin-3-yl)-methyl]-thieno[2,3-d]pyrimidin-2-yl}-benzonitrile]	168 nM	12.1 nM	9.25 nM
N#Cc1cccc(-c2nc(N)c3cc(Cc4ncccc4F)sc3n2)c1 [Example 38, 3-[4-Amino-6-(3-fluoro-pyridin-2-ylmethyl)-thieno[2,3-d]pyrimidin-2-yl]-benzonitrile]	30 nM	57.8 nM	1.41 nM
N#Cc1cccc(-c2nc(N)c3cc(Cc4cccnc4Cl)sc3n2)c1 [Example 35, 3-[4-Amino-6-(2-chloro-pyridin-3-ylmethyl)-thieno[2,3-d]pyrimidin-2-yl]-benzonitrile]	713 nM	28.4 nM	11.4 nM
COc1cccnc1Cc1cc2c(N)nc(-c3cccc(C#N)c3)nc2s1 [Example 34, 3-[4-Amino-6-(3-methoxy-pyridin-2-ylmethyl)-thieno[2,3-d]pyrimidin-2-yl]-benzonitrile]	26.1 nM	20.2 nM	1.24 nM
COc1cccnc1C(O)c1cc2c(N)nc(-c3cccc(C#N)c3)nc2s1 (stereo not shown) [Example 33, 3-{4-Amino-6-[hydroxy-(3-methoxy-pyridin-2-yl)-methyl]-thieno[2,3-d]pyrimidin-2-yl}-benzonitrile]	84.2 nM	6.66 nM	4.44 nM
N#Cc1cccc(-c2nc(N)c3cc(C(O)c4ccncc4Cl)sc3n2)c1 (stereo not shown) [Example 21, 3-{4-Amino-6-[(3-chloro-pyridin-4-yl)-hydroxy-methyl]-thieno[2,3-d]pyrimidin-2-yl}-benzonitrile]	412 nM	43.8 nM	12.3 nM
N#Cc1cccc(-c2nc(N)c3cc(C(O)c4ccccn4)sc3n2)c1 (stereo not shown) [Example 15, 3-[4-Amino-6-(hydroxy-pyridin-2-yl-methyl)-thieno[2,3-d]pyrimidin-2-yl]-benzonitrile]	152 nM	34.3 nM	5.04 nM
COc1ncccc1Cc1cc2c(N)nc(-c3cccc(C#N)c3)nc2s1 [Example 10, 3-[4-Amino-6-(2-methoxy-pyridin-3-ylmethyl)-thieno[2,3-d]pyrimidin-2-yl]-benzonitrile]	101 nM	34.2 nM	14.4 nM
N#Cc1cccc(-c2nc(N)c3cc(CCc4ccccn4)sc3n2)c1 [Example 2, 3-[4-Amino-6-(2-pyridin-2-yl-ethyl)-thieno[2,3-d]pyrimidin-2-yl]-benzonitrile]	468 nM		79.2 nM
N#Cc1cccc(-c2nc(N)c3cc(C(O)c4cccnc4Cl)sc3n2)c1 (stereo not shown) [Example 30, 3-{4-Amino-6-[(2-chloro-pyridin-3-yl)-hydroxy-methyl]-thieno[2,3-d]pyrimidin-2-yl}-benzonitrile]	347 nM	61.9 nM	16.3 nM
COc1ccc(C(O)c2cc3c(N)nc(-c4cccc(C#N)c4)nc3s2)cn1 (stereo not shown) [Example 36, 3-{4-Amino-6-[hydroxy-(6-methoxy-pyridin-3-yl)-methyl]-thieno[2,3-d]pyrimidin-2-yl}-benzonitrile]	726 nM		156 nM
N#Cc1cccc(-c2nc(N)c3cc(Cc4ccncc4Cl)sc3n2)c1 [Example 22, 3-[4-Amino-6-(3-chloro-pyridin-4-ylmethyl)-thieno[2,3-d]pyrimidin-2-yl]-benzonitrile]	> 610 nM		25.3 nM
N#Cc1cccc(-c2nc(N)c3cc(C(O)c4ccncc4)sc3n2)c1 (stereo not shown) [Example 28, 3-[4-Amino-6-(hydroxy-pyridin-4-yl-methyl)-thieno[2,3-d]pyrimidin-2-yl]-benzonitrile]	787 nM		87.5 nM
N#Cc1cccc(-c2nc(N)c3cc(Cc4cccnc4)sc3n2)c1 [Example 32, 3-(4-Amino-6-pyridin-3-ylmethyl-thieno[2,3-d]pyrimidin-2-yl)-benzonitrile]	408 nM		17.6 nM
